The values that follow come from US6673368B2, “Colonic motor dysfunction remedies comprising aminothiazole derivatives as active ingredients” (Zeria Phamaceutical Co., Ltd., priority 2000, dated 2004).

SMILES strings stand for the structures.

Experiment [1] concerns large intestines of male dogs. As to the kind of experiment: Effects on colonic motor activity (force transducers, conscious dogs, postcibal period). Format: in vivo. Particulars: dog; for Percent of motor index, large intestine: until 1 hour after administration, 30 minutes before administration = 100%; for Effect on colonic motility (in words): intraduodenal, doses of Table 1. From the text: (§1) Test 1 [Effects on Gastric and Colonic Motor Activity]
(§2) Force transducers (“F-12IS”, trade name; manufactured by Star Medical Technologies, Inc.) were chronically sutured in the gastric antrum and large intestines of male dogs (body weight: 9 to 11 kg, 5 to 6 dogs per group) (Itoh, Z. et al., Am. J. Dig. Dis. 22, 117-124, 1977). Contraction signals from the respective regions in postcibal period were amplified and recorded (“RTA-1200”, trade name; manufactured by Nihon Kohden Corporation). The contraction signals, which had been collected in a computer, were analyzed by using an analysis program (“DSSDDWHD V.30”, trade name; prepared by Nihon Kohden Corporation), whereby motor indexes were calculated. The test drugs were administered through catheters which had been chronically indwelled beforehand in the duodenum, respectively. Supposing that the coefficient of motor 30 minutes before the administration of drug was 100%, the results were calculated as percents of motor index until 1 hour after the administration.

Experiment [2] deals with gastric antrum of male dogs. As to the kind of experiment: Effects on gastric motor activity (force transducers, conscious dogs, postcibal period). It counts as in vivo. Particulars: dog, until 1 hour after administration, 30 minutes before administration = 100%.
Excerpt: as §1, §2

In another experiment the test system is male SD rats. In words: Effects on defecation in rats. Format: in vivo, rat. Particulars: 10 mg/kg intraperitoneal, dry stool weight until 60 minutes after administration, control average = 100%. The protocol: Test 2 [Effects on Defecation]
Test drugs were intraperitoneally administered to male SD rats (8 rats per group). Stools were recovered until 60 minutes after the administration, and their dry weights were measured. Supposing that that the average of stool weights in a control group was 100%, the averages of percent weights of individual test drug groups were calculated.

Consider `COc1cc(N)c(Cl)cc1C(=O)NC1CCN(CCCOc2ccc(F)cc2)CC1OC` (stereo not drawn) [Cisapride, cisapride], for which the “Percent of motor index, large intestine” value in experiment [1] (1 mg/kg intraduodenal) came to 114.5%. In addition, the “Effect on colonic motility (in words)” value in experiment [1] is on record as “no significant effect”. In addition, in experiment [2] (1 mg/kg intraduodenal), the “Percent of motor index, gastric antrum” value turned out to be 158.7%.
As to `CCOc1cc(N)c(Cl)cc1C(=O)NCC1CN(Cc2ccc(F)cc2)CCO1` (stereo not drawn) [Mosapride, mosapride], the “Percent of motor index, large intestine” value in experiment [1] (3 mg/kg intraduodenal) is 119.2%. Moreover, in experiment [1], the “Effect on colonic motility (in words)” value is “no significant effect”. In experiment [2] (3 mg/kg intraduodenal), the “Percent of motor index, gastric antrum” value came out at 146.2%.
For `COc1ccc(C(=O)NCc2ccc(OCCN(C)C)cc2)cc1OC` [Itopride, itopride], in experiment [1] (10 mg/kg intraduodenal), the “Percent of motor index, large intestine” value worked out at 122.1%. The “Effect on colonic motility (in words)” value in experiment [1] is on record as “no significant effect”. In addition, the “Percent of motor index, gastric antrum” value in experiment [2] (10 mg/kg intraduodenal) is given as 132.7%.
With `CC(C)N(CCNC(=O)c1csc(NC(=O)c2cccc(N)c2)n1)C(C)C` [Compound 3, N-(N′,N′-diisopropylaminoethyl)-[2-(3-aminobenzoyl-amino)-1,3-thiazol-4-yl]carboxamide], the “Percent of motor index, large intestine” value in experiment [1] (10 mg/kg intraduodenal) worked out at 249.9%. Moreover, the “Percent of motor index, gastric antrum” value in experiment [2] (10 mg/kg intraduodenal) was found to be 244.6%. In the experiment on male SD rats, this compound returned a Percent stool weight of 733.3%.
Turning to `COc1cc(O)c(C(=O)Nc2nc(C(=O)NCCN(C(C)C)C(C)C)cs2)cc1OC.Cl.O.O.O` [Compound 1, N-(N′,N′-diisopropylaminoethyl)-[2-(2-hydroxy-4,5-dimethoxybenzoylamino)-1,3-thiazol-4-yl]carboxamide HCL trihydrate], the “Percent of motor index, large intestine” value in experiment [1] (10 mg/kg intraduodenal) was determined as 136.1%. The “Percent of motor index, gastric antrum” value in experiment [2] (10 mg/kg intraduodenal) was 163.7%. In addition, in the experiment with male SD rats, the Percent stool weight is given as 361.8%.
For `CC(C)N(CCNC(=O)c1csc(NC(=O)c2cccc(C#N)c2)n1)C(C)C.Cl` [Compound 2, N-(N′,N′-diisopropylaminoethyl)-[2-(3-cyanobenzoyl-amino)-1,3-thiazol-4-yl]carboxamide hydrochloride], the “Percent of motor index, large intestine” value in experiment [1] (10 mg/kg intraduodenal) turned out to be 221.7%. The “Percent of motor index, gastric antrum” value in experiment [2] (10 mg/kg intraduodenal) stood at 189.5%. For the same compound, in the experiment with male SD rats, the Percent stool weight was determined as 766.7%.
